Test results: patent US11059809B2, “Substituted cyanopyrrolidines with activity as DUB inhibitors” (MISSION THERAPEUTICS LIMITED, priority 2017, dated 2021)

The compounds below were run against USP30 (Homo sapiens (Human), UniProt Q70CQ3) (assay: USP30 Biochemical IC50 Assay). Conditions: fluorescence polarisation, TAMRA labelled peptide linked to ubiquitin as substrate.
USP30, sequence (Q70CQ3 whole entry): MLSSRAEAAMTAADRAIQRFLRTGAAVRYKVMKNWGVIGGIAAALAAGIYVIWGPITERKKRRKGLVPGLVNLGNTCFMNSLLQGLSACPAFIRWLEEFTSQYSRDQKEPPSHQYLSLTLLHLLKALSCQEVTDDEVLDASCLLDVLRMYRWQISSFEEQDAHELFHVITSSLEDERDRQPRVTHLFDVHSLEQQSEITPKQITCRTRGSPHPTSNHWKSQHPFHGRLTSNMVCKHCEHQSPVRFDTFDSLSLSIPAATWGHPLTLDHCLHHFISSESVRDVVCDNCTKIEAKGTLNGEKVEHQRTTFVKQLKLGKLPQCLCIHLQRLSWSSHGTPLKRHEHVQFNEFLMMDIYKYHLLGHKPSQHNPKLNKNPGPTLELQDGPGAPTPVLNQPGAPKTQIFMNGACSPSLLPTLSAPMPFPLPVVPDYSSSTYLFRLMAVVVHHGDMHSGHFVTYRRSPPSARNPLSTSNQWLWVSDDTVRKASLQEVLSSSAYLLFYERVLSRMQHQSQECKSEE
Method: Dilution plates were prepared at 21 times the final concentration (2100 μM for a final concentration of 100 μM) in 50% DMSO in a 96-well polypropylene V-bottom plate (Greiner #651201). A typical 8-point dilution series would be 100, 30, 10, 3, 1, 0.3, 0.1, 0.03 μM final. Reactions were performed in duplicate in black 384 well plates (small volume, Greiner 784076) in a final reaction volume of 21 μl. Either 1 μl of 50% DMSO or diluted compound was added to the plate. USP30 was diluted in reaction buffer (40 mM Tris, pH 7.5, 0.005% Tween 20, 0.5 mg/ml BSA, 5 mM beta-mercaptoethanol) to the equivalent of 0.05 μl/well and 10 μl of diluted USP30 was added to the compound. Enzyme and compound were incubated for 30 min at room temp. Reactions were initiated by the addition of 50 nM of TAMRA labelled peptide linked to ubiquitin via an iso-peptide bond as fluorescence polarisation substrate. Reactions were read immediately after addition of substrate and following a 2-hour incubation at room temperature. Readings were performed on a Pherastar Plus (BMG Labtech). λ Excitation 540 nm; λ Emission 590 nm.
For `C[C@@H]1[C@H](CNC(=O)c2ncn(-c3cccc(C#N)c3)n2)CCN1C#N` (mixture of isomers) [Example 4, N-(((2R,3R)-1-cyano-2-methylpyrrolidin-3-yl)methyl)-1-(3-cyanophenyl)-1H-1,2,4-triazole-3-carboxamide and N-(((2R,3S)-1-cyano-2-methylpyrrolidin-3-yl)methyl)-1-(3-cyanophenyl)-1H-1,2,4-triazole-3-carboxamide], the IC50 was 10 to 100 nM. In the case of `CN(C[C@H]1CCN(C#N)C1)C(=O)c1ncn(-c2cccc(C#N)c2)n1` [Example 2, (S)-1-(3-cyanophenyl)-N-((1-cyanopyrrolidin-3-yl)methyl)-N-methyl-1H-1,2,4-triazole-3-carboxamide], the IC50 is reported as 10 to 100 nM. With `N#Cc1cccc(-n2cc(C(=O)NC[C@H]3CCN(C#N)C3)nn2)c1` [Example 5, (R)-1-(3-cyanophenyl)-N((1-cyanopyrrolidin-3-yl)methyl)-1H-1,2,3-triazole-4-carboxamide] the IC50 was 100 to 1000 nM. For `N#CN1CC[C@H](CNC(=O)c2cnn(-c3cccc(Cl)c3)n2)C1` [Example 7, (R)-2-(3-chlorophenyl)-N-((1-cyanopyrrolidin-3-yl)methyl)-2H-1,2,3-triazole-4-carboxamide], the IC50 was < 10 nM.
